Measurements: ChEMBL document CHEMBL4418912, “Methods of identifying antagonists of the hTAS2R46 bitter taste receptor” (2014)
Activity calls are given as the source filed them. The calls are words filed in the database; no cut-off is given here.

Experiments:
Assay type in all cases: functional, cell-based
[1] = molecular target: T1, Taste receptor type 2 member 5 (Homo sapiens) (UniProt Q9NYW4); assay: Antagonist activity at recombinant human N-terminal rat ST3 receptor-fused TAS2R5 expressed in HEK293T cells co-expressing Galpha16gust44 assessed as inhibition of denatonium saccharide-induced intracellular calcium level at 100 uM by FLIPR assay
T1 sequence (whole entry): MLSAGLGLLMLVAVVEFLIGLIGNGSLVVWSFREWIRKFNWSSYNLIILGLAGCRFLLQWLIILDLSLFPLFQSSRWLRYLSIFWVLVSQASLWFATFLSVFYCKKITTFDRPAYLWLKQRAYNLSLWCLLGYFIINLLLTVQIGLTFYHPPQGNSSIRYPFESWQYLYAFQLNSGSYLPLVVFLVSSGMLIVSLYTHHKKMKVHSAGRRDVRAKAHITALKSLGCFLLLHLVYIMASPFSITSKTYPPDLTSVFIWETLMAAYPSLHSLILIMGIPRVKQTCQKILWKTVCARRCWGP

[2] = molecular target: T2, Taste receptor type 2 member 10 (Homo sapiens) (UniProt Q9NYW0); assay: Competitive-antagonist activity at recombinant human N-terminal rat ST3 receptor-fused TAS2R10 expressed in HEK293T cells co-expressing Galpha16gust44 assessed as inhibition of strychnine-induced increase in intracellular calcium level by measuring maximum signal amplitude at 30 uM by FLIPR assay (reference value: 0.42 +/- 0.09 a.u.)
T2 sequence (whole entry): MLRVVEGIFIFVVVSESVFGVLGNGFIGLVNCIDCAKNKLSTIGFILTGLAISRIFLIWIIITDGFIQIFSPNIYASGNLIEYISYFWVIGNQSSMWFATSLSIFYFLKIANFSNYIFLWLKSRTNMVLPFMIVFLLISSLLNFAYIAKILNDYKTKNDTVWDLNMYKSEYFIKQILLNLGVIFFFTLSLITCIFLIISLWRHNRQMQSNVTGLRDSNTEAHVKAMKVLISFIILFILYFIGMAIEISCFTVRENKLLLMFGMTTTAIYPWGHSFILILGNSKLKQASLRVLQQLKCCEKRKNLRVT

[3] = molecular target: Taste receptor type 2 member 41 (Homo sapiens) (UniProt P59536); assay: Agonist activity at recombinant human N-terminal rat ST3 receptor-fused TAS2R41 expressed in HEK293T cells co-expressing Galpha16gust44 assessed as increase in intracellular calcium level at 100 uM by FLIPR assay
Chain of Taste receptor type 2 member 41 (Homo sapiens) (P59536 whole entry, the tested form may be a part): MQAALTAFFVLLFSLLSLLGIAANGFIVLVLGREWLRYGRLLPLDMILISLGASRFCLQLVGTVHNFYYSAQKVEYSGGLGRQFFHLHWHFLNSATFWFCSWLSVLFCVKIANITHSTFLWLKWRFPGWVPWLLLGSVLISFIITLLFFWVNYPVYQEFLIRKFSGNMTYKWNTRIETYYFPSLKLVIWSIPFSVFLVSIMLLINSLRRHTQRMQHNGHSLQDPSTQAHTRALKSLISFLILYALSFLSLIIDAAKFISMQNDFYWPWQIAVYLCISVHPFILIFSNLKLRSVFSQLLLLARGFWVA

[4] = molecular target: Taste receptor type 2 member 42 (Homo sapiens) (UniProt Q7RTR8); assay: Agonist activity at recombinant human N-terminal rat ST3 receptor-fused TAS2R42 expressed in HEK293T cells co-expressing Galpha16gust44 assessed as increase in intracellular calcium level at 100 uM by FLIPR assay
Chain of Taste receptor type 2 member 42 (Homo sapiens) (Q7RTR8 whole entry, the tested form may be a part): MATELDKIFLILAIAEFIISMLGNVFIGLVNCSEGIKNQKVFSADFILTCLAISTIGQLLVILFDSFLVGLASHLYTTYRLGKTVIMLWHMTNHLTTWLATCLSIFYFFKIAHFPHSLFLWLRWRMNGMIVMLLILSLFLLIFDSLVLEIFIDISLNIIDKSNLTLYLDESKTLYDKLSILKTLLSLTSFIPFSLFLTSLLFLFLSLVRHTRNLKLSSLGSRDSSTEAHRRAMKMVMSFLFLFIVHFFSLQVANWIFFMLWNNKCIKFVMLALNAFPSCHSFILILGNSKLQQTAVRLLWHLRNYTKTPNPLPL

[5] = molecular target: T3, Taste receptor type 2 member 20 (Homo sapiens) (UniProt P59543); assay: Agonist activity at recombinant human N-terminal rat ST3 receptor-fused TAS2R49 expressed in HEK293T cells co-expressing Galpha16gust44 assessed as increase in intracellular calcium level at 100 uM by FLIPR assay
T3 sequence (whole entry): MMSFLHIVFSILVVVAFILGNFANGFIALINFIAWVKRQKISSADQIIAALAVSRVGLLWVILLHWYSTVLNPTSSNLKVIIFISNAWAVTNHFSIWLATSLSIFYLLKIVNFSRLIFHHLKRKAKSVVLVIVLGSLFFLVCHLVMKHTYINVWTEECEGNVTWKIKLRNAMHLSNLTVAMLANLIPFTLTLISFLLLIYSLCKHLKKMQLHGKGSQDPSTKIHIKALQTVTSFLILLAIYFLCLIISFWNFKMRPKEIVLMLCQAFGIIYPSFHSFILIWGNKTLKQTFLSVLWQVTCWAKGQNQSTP

[6] = molecular target: T4, Taste receptor type 2 member 50 (Homo sapiens) (UniProt P59544); assay: Agonist activity at recombinant human N-terminal rat ST3 receptor-fused TAS2R50 expressed in HEK293T cells co-expressing Galpha16gust44 assessed as increase in intracellular calcium level at 100 uM by FLIPR assay
T4 sequence (whole entry): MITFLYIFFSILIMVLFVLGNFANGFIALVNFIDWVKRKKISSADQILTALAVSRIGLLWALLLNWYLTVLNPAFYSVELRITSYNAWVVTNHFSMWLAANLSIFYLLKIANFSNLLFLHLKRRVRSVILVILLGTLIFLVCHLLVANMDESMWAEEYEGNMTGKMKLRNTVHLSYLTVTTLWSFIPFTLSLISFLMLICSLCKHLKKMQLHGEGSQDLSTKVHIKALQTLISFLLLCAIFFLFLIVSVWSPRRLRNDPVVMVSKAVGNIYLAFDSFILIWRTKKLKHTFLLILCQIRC

[7] = molecular target: T1, Taste receptor type 2 member 5 (Homo sapiens); assay: Agonist activity at recombinant human N-terminal rat ST3 receptor-fused TAS2R5 expressed in HEK293T cells co-expressing Galpha16gust44 assessed as increase in intracellular calcium level at 100 uM by FLIPR assay
[8] = molecular target: T5, Taste receptor type 2 member 31 (Homo sapiens) (UniProt P59538); assay: Agonist activity at recombinant human N-terminal rat ST3 receptor-fused TAS2R44 expressed in HEK293T cells co-expressing Galpha16gust44 assessed as increase in intracellular calcium level at 100 uM by FLIPR assay
T5 sequence (whole entry): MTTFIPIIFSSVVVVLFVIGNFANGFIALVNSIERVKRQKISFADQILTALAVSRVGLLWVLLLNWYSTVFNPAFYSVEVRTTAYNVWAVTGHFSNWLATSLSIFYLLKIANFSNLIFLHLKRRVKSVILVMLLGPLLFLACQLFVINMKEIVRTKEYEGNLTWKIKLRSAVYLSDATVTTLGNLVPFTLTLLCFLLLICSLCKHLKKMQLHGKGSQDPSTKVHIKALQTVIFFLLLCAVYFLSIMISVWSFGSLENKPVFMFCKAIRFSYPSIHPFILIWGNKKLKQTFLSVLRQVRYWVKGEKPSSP

[9] = molecular target: T6, Taste receptor type 2 member 7 (Homo sapiens) (UniProt Q9NYW3); assay: Potentiation of quinine sulfate-induced agonist activity at recombinant human N-terminal rat ST3 receptor-fused TAS2R7 expressed in HEK293T cells co-expressing Galpha16gust44 assessed as increase in intracellular calcium level at 100 uM by FLIPR assay
T6 sequence (whole entry): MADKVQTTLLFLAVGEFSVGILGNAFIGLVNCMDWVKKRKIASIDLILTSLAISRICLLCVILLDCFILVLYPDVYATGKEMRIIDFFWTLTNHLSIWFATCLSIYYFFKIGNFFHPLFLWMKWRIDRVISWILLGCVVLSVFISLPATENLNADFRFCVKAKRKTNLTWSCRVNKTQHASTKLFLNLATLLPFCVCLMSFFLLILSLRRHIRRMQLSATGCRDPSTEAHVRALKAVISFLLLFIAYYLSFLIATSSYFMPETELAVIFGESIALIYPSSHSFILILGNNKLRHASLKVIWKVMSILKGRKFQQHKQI

SMILES	inhibition [1]	Activity [2] [a.u.]	Activity [3]	Activity [4]	Activity [5]	Activity [6]	Activity [7]	Activity [8]	Activity [9]
C/C1=C\C[C@H](O)[C@@H](C)C[C@H]2OC(=O)[C@@H](C)[C@@H]2CC1	inactive								
C/C1=C\C[C@H](O)/C(C)=C/[C@H]2OC(=O)[C@@H](C)[C@@H]2CC1		0.41	inactive	inactive	inactive	inactive	inactive	Active	Active
